The test system of assay [1] is diamondback moth larvae. Nature of the assay: Leaf dip test, diamondback moth larvae. The format is in vivo. As to conditions: Plutella xylostella, foliar, Bta/Btk 1.69 ppm, chlorantraniliprole 0.0009 ppm, read-out: % Efficacy. An excerpt: (§1) The following examples were used to determine the synergy of Bacillus thuringiensis subsp. aizawai, Bacillus thuringiensis subsp. kurstaki and chlorantraniliprole when controlling diamondback moth, beet armyworm, sugarcane borer, soybean looper, corn earworm, cabbage looper, and southwestern corn borer. Sympatico™ emulsifiable suspension (available from Valent BioSciences Corporation) was used as the source of Bacillus thuringiensis subsp. aizawai and Bacillus thuringiensis kurstaki. Sympatico™ contains about a 1:0.67 ratio of Bacillus thuringiensis subsp. kurstaki fermentation solids, spores and toxins to Bacillus thuringiensis subsp. aizawai fermentation solids, spores and toxins. Coragen® was used as the source of chlorantraniliprole. The present invention is not limited to the commercial products used in the examples. In each example below, the studies were conducted as follows.
(§2) For these tests, standardized laboratory leaf dip methods were used to inoculate plant material with treatment(s). Dry, treated leaves were placed into Petri dishes (100×25 mm) containing filter paper wetted with 500 μl of distilled H2O (“dH2O”). Each dish was then infested with between 5 and 10 larvae, dependent on species. Efficacy ratings were taken at specified intervals. Synergy ratings were calculated for each test. […]

The subject of assay [2] is corn earworm larvae. Description: Leaf dip test, corn earworm larvae. The format is in vivo. The conditions noted are these: Helicoverpa zea, foliar, Bta/Btk 5.4 ppm, chlorantraniliprole 0.0009 ppm, read-out: % Efficacy.
Text: as §1, §2

The test system of assay [3] is beet armyworm larvae. Description: Leaf dip test, beet armyworm larvae. The format is in vivo. The conditions noted are these: Spodoptera exigua, foliar, Bta/Btk 1.69 ppm, chlorantraniliprole 0.0009 ppm, read-out: % Efficacy.
Text: as §1, §2

The subject of assay [4] is cabbage looper larvae. Description: Leaf dip test, cabbage looper larvae. The format is in vivo. The conditions noted are these: Trichoplusia ni, foliar, Bta/Btk 1.69 ppm, chlorantraniliprole 0.0009 ppm, read-out: % Efficacy.
Text: as §1, §2

The subject of assay [5] is southwestern corn borer larvae. Nature of the assay: Leaf dip test, southwestern corn borer larvae. The conditions noted are these: foliar, Bta/Btk 1.69 ppm, chlorantraniliprole 0.0009 ppm, read-out: % Efficacy. The format is in vivo, Diatraea grandiosella.
Text: as §1, §2

For assay [6], the system named is soybean looper larvae. Nature of the assay: Leaf dip test, soybean looper larvae. The format is in vivo, Chrysodeixis includens. As to conditions: foliar, Bta/Btk 0.54 ppm, chlorantraniliprole 0.045 ppm, read-out: % Efficacy.
Text: as §1, §2

The subject of assay [7] is sugarcane borer larvae. Nature of the assay: Leaf dip test, sugarcane borer larvae. The format is in vivo. The conditions noted are these: Diatraea saccharalis, foliar, Bta/Btk 1.69 ppm, chlorantraniliprole 0.0009 ppm, read-out: % Efficacy.
Text: as §1, §2

Read-outs that look alike come from different tables or passages of the source.

The values that follow come from patent publication US9723844B2, “Synergistic Bacillus thuringiensis subsp. aizawai, Bacillus thuringiensis subsp. kurstaki and chlorantraniliprole mixtures for diamondback moth, beet armyworm, sugarcane borer, soybean looper, corn earworm, cabbage looper, and southwestern corn borer control” (Valent BioSciences Corporation, priority 2015, dated 2017).

For `CNC(=O)c1cc(Cl)cc(C)c1NC(=O)c1cc(Br)nn1-c1ncccc1Cl` [Chlorantraniliprole], the Emax at 0.0009 ppm worked out at 7% in assay [1] (24 h after treatment); 13% in assay [1] (48 h after treatment); 3% in assay [2] (24 h after treatment); 3% in assay [2] (48 h after treatment); 3% in assay [3] (24 h after treatment); 7% in assay [3] (48 h after treatment). The Emax at 0.0009 ppm is 3% in assay [4] (24 h after treatment); 10% in assay [4] (48 h after treatment); 3% in assay [5] (24 h after treatment); 3% in assay [5] (48 h after treatment); 3% in assay [7] (24 h after treatment); 13% in assay [7] (48 h after treatment). The Emax at 0.045 ppm in assay [6] (24 h after treatment) came out at 3%; in assay [6] (48 h after treatment), 14%.
